According to the NIST ThermoML archive (doi:10.1016/j.jct.2012.06.003):
Numbers after ± are expanded uncertainties.

Assays:
[1] = Molar enthalpy of transition or fusion; conditions: DSC
[2] = for Normal melting temperature: Crystal

Molar enthalpy of transition or fusion ([1]; Crystal 2): 0.467 ± 0.0526 kcal/mol
Molar enthalpy of transition or fusion ([1]; Crystal): 10 ± 0.217 kcal/mol
Triple point temperature ([2]; Crystal 2, DTA): 310.3 ± 0.4 K
Normal melting temperature ([2]; DTA): 64.61 ± 0.39 °C
Normal melting temperature ([2]; Visual method): 63 ± 0.1 °C
Structure (SMILES): CCCCCC[n+]1cccc(C)c1.O=S(=O)([O-])C(F)(F)F [1-hexyl-3-methylpyridinium trifluoromethanesulfonate]
